# Source: US8299093B2, “Small molecule inhibitors of retroviral assembly and maturation” (New York Blood Center, Inc., priority 2008, dated 2012)
# Where two headings read alike, the source gives them in different places.
# Tests used:
# HIV-1 [1] = conditions: cited from earlier work
# HIV-1 capsid = HIV-1 capsid (Human immunodeficiency virus type 1 group M subtype B, UniProt P04591); conditions: read-out: Binding affinity (Kd); cited from earlier work
# HIV-1 93Br020 = assay: Antiviral activity (p24) against primary isolate 93Br020 in PBMC; format: cell-based; conditions: Human immunodeficiency virus 1, 93Br020, subtype F, R5X4, primary isolate
# Procedure: (§1) Peripheral blood mononuclear cells (PBMCs) were isolated from the blood of healthy donors by standard density gradient centrifugation using Histopaque-1077 (Sigma). The cells were cultured at 37° C. for 2 hours. Nonadherent cells were collected and resuspended at 5×10^6 cells/ml RPMI-1640 medium containing 10% FBS, 5 μg/ml PHA, and 100 U/ml IL-2 (Sigma), followed by incubation at 37° C. for 3 days. The PHA-stimulated cells (5×10^4 cells/well) were infected with primary HIV-1 isolates at 500 TCID50 (0.01 MOI) in the absence or presence of small molecule inhibitor at graded concentrations. Culture media were changed every 3 days and replaced with fresh media containing freshly prepared inhibitor. The supernatants were collected 7 days post-infection and tested for p24 antigen by ELISA. The inhibition of p24 production in PBMC was measured over a range of concentrations and the concentration required to inhibit 50% (IC50) of the p24 production was calculated by the GraphPad Prism software.
# (§2) The molecules in Tables 3 include the calculated IC50 values and use “A1” to denote IC50<10 μM and “B1” to denote IC50>10 μM and “C1” to denote CC50<50 μM and “D1” to denote […].
# HIV-1 93IN101 = assay: Antiviral activity (p24) against primary isolate 93IN101 in PBMC; format: cell-based; conditions: Human immunodeficiency virus 1, 93IN101, subtype C, R5, primary isolate
# Procedure: as §1, §2
# HIV-1 AZT-R = assay: Antiviral activity (p24) against RT-resistant isolate AZT-R in MT-2; format: cell-based; conditions: Human immunodeficiency virus 1
# Procedure: (§3) AZT was used as a positive control in the infectivity assays. In brief, 1×10^4 MT-2 cells (lymphocytes) were infected with HIV-1 at 100 TCID50 (50% tissue culture infective dose, 0.01 MOI [multiplicity of infection]) in 200 μL RPMI 1640 medium containing 10% FBS in the presence or absence of small molecules at graded concentrations overnight. The culture supernatants were then removed and fresh media containing freshly prepared test compounds were added. On the fourth day post-infection, 100 μL of culture supernatants were collected from each well, mixed with equal volume of 5% TRITON X-100® and tested for p24 antigen by ELISA®. The IC50 values were calculated by the GraphPad Prism software (GraphPad Software®, Inc.) and the values were classified as IC50<10 μM and IC50>10 μM.
# as §2
# HIV-1 92US657 = assay: Antiviral activity (p24) against primary isolate 92US657 in PBMC; format: cell-based; conditions: Human immunodeficiency virus 1, 92US657, subtype B, R5, primary isolate
# Procedure: as §1, §2
# HIV-1 BCF02 = assay: Antiviral activity (p24) against primary isolate BCF02 in PBMC; format: cell-based; conditions: Human immunodeficiency virus 1, BCF02, Group (O), R5, primary isolate
# Procedure: as §1, §2
# HIV-1 [2] = assay: Inhibition of HIV-1 infectivity (p24 ELISA) in MT-2 cells, laboratory-adapted HIV-1 strains; format: cell-based; conditions: for IC50: Human immunodeficiency virus 1, MT2, 96 h, MT-2 cells, p24 ELISA day 4; for Activity against a broad range of HIV-1 laboratory-adapted and primary isolates: including one RT-inhibitor-resistant and one protease-inhibitor-resistant isolate (summary of Table 3)
# Procedure: as §3, with “ELISA®.” for “ELISA®. The IC50 values were calculated by the GraphPad Prism software (GraphPad Software®, Inc.) and the values were classified as IC50<10 μM and IC50>10 μM.”
# HIV-1RF/L-323-12-3 = assay: Antiviral activity (p24) against protease resistant isolate HIV-1RF/L-323-12-3 in MT-2; format: cell-based; conditions: Human immunodeficiency virus 1
# Procedure: as §3, §2
# HIV-1 SF2 = assay: Antiviral activity (p24) against HIV-1 SF2 in MT-2; format: cell-based; conditions: Human immunodeficiency virus 1; SF2, subtype B, MT-2, R5X4, laboratory strain
# Procedure: as §3, §2
# [3] = system: Gag-Pol expressing 293 T cells; assay: Cell-based mature particle formation (VLP), electron microscopy of Gag-Pol transfected 293 T cells; set-up: species or system HIV-1
# Procedure: In the cell-based system, the impact of NYAD-S6 on virus-like particle (VLP) release and morphology was analyzed by electron microscopy one day post-transfection with plasmid encoding Gag-Pol. Forty thousand 293 T cells were seeded per well in a 6-well plate on the day before transfection. […] The cells were then fixed in 3% glutaraldehyde in 100 mM sodium cacodylate for 1 hour and post-fixed in 1% OsO4 in 100 mM sodium cacodylate for another 1 hour. Specimens were then dehydrated through graded series of ethanol solutions and embedded in EPON® media. After staining with uranyl acetate and lead citrate, ultra-thin sections were examined under a Philips EM410 electron microscope.
# In the case of untreated cells transfected with a Gag-Pol expression vector, a large number of mature particles containing electron-dense core structures were found (FIG. 2A).
# HIV-1 BaL = assay: Antiviral activity (p24) against HIV-1 BaL in PBMC; format: cell-based; conditions: Human immunodeficiency virus 1, subtype B, R5, laboratory strain
# Procedure: as §3, §1, §2
# HIV-1 RU570 = assay: Antiviral activity (p24) against primary isolate RU570 in PBMC; format: cell-based; conditions: Human immunodeficiency virus 1, RU570, subtype G, R5, primary isolate
# Procedure: as §1, §2
# HIV-1 RF = assay: Antiviral activity (p24) against HIV-1 RF in MT-2; format: cell-based; conditions: Human immunodeficiency virus 1, subtype B, MT-2, X4, laboratory strain
# Procedure: as §3, §2
# [4] = XTT cytotoxicity assay in MT-2 cells; format: cell-based; conditions: human; for CC50 at 4 days: MT-2 cells; for CC50: cell type not given
# Procedure: (§4) Briefly, for MT-2 cells, 100 μL of small molecule at graded concentrations was added to an equal volume of cells (5×10^4 cells/ml) in 96-well plates followed by incubation at 37° C. for 4 days, which ran parallel to the neutralization assay in MT-2 (except medium was added instead of virus). In the case of PBMC, 2.5×10^5 cells/mL were used and the cytotoxicity was measured after 7 days. After addition of XTT (PolySciences, Inc.), the soluble intracellular formazan was quantitated calorimetrically at 450 nm 4 hours later with a reference at 620 nm. The CC50 values were calculated.
# HIV-1 MN = assay: Antiviral activity (p24) against HIV-1 MN in MT-2; format: cell-based; conditions: Human immunodeficiency virus 1, subtype B, MT-2, X4, laboratory strain
# Procedure: as §3, §2
# [5] = XTT cytotoxicity assay in PBMC; format: cell-based; conditions: human
# Procedure: as §4, with “Cytotoxicity of small molecules in cultures with MT-2 cells and PBMC was measured by the tetrazolium hydroxide XTT (sodium 3′-(1-(phenylamino)-carbonyl)-3,4-tetrazolium-bis(4-methoxy-6-nitro) benzenesulfonic acid hydrate) cytotoxicity assay, as previously described (Jiang et al., 2004). Briefly,” for “Briefly,”
# HIV-1 IIIB = assay: Antiviral activity (p24) against HIV-1 IIIB in MT-2; format: cell-based; conditions: Human immunodeficiency virus 1, subtype B, MT-2, X4, laboratory strain
# Procedure: as §3, §2
# HIV-1 [6] = conditions: cited from earlier work; remark: listed apart in the source
# [7] = Table 2, formula II, read-out: CC50
Compound,IC50 (HIV-1 93Br020) [µM],IC50 (HIV-1 93IN101) [µM],IC50 (HIV-1 AZT-R) [µM],IC50 (HIV-1 92US657) [µM],IC50 (HIV-1 BCF02) [µM],Activity against a broad range of HIV-1 laboratory-adapted and primary isolates (HIV-1 [2]),IC50 (HIV-1RF/L-323-12-3) [µM],IC50 (HIV-1 SF2) [µM],IC50 (HIV-1 BaL) [µM],IC50 (HIV-1 RU570) [µM],IC50 (HIV-1 RF) [µM],CC50 at 4 days [4] [µM],IC50 (HIV-1 MN) [µM],CC50 at 7 days [5] [µM],IC50 (HIV-1 IIIB) [µM],"IC50 (HIV-1 [2]; Table 2, formula II) [µM]","CC50 [4, 7] [µM]",also measured
Cc1ccc(NC(=O)NCCSCc2ccc(CN(C)C)o2)cc1Cl [CAP-1],,,,,,,,,,,,,,,,,,HIV-1 inhibition in viral infectivity assays (HIV-1 [1]): dose-dependent HIV-1 inhibition; Kd (HIV-1 capsid): ~800 µM
Cc1ccc2[nH]c(=O)c(CN(Cc3ccco3)C(=O)c3ccc(Cl)cc3)cc2c1 [NYAD-S6],< 10,< 10,< 10,< 10,< 10,consistently potent activity,< 10,< 10,< 10,< 10,< 10,> 50,< 10,> 50,< 10,,,"IC50 (HIV-1 [2]; read-out: IC50 (concentration that provides 50% inhibition of HIV-1 p24), Table 1, formula I): < 10 µM; Formation of electron-dense core structures ([3]; 0.4 μM): markedly inhibited; Formation of electron-dense core structures ([3]; 2 μM): markedly inhibited; Formation of electron-dense core structures ([3]; 10 μM): markedly inhibited; Mature particle formation ([3]; FIGS. 2A-D, 0.4, 2 and 10 μM vs control): dramatic decrease in mature particle formation; CC50 ([4]; Table 1, formula I, read-out: CC50 (concentration that causes 50% cytotoxicity)): > 10 µM"
Cc1cc(=O)n2c3ccccc3n(CC(O)CNc3ccc(F)cc3)c2c1C#N (centres unmarked) [NYAD-S8],< 10,< 10,< 10,< 10,> 10,consistently potent activity,< 10,< 10,< 10,< 10,< 10,> 50,< 10,> 50,> 10,> 10,> 10,
Cc1cc(=O)n2c3ccccc3n(CC(O)CN3CCN(C(c4ccccc4)c4ccccc4)CC3)c2c1C#N (centres unmarked) [NYAD-S17],,< 10,< 10,< 10,< 10,consistently potent activity,,< 10,< 10,< 10,< 10,< 50,< 10,< 50,< 10,< 10,> 10,
C=C(C)[C@@H]1CC[C@]2(C(=O)O)CC[C@]3(C)[C@H](CC[C@@H]4[C@@]5(C)CC[C@H](OC(=O)CC(C)(C)C(=O)O)C(C)(C)[C@@H]5CC[C@]43C)[C@@H]12 [PA-457],,,,,,,,,,,,,,,,,,Antiviral potency in cell culture (HIV-1 [6]): low nM
